Results taken from patent US11999806B2, “Broad-spectrum polypeptide against enterovirus and application thereof” (WUHAN INSTITUTE OF VIROLOGY, CHINESE ACADEMY OF SCIENCES, priority 2018, dated 2024).
Several values for one entry are separate records, joined by “and”; a condition that tells them apart may be missing. Equal entries are not always repeated. Non-standard residues stand in square brackets, D forms with d. Residues, ends and D or L forms follow the SMILES beside them. No end group written: not given here.

Legend:
CVB3 = assay: Anti-CVB3 effect in Vero cells, qRT-PCR; assay type: cell-based, Coxsackievirus B3; details: text of Example 21, read-out: IC50 against CVB3
Protocol: • (1) Vero cells were plated in a 24-well cell plate. • (2) After the cells reached 70%-80% confluence, the MEM medium containing 10% serum was replaced with a MEM medium containing 2% serum and CVB3 virus, 0.5 ml per well. MOI of the virus was 0.01. […]

EV71 = assay: Antiviral activity against EV71 in mice, virus copies in lung by qRT-PCR; assay type: in vivo, ICR mice
Text: • (1) 10 2-day-old ICR mice were randomly divided into two groups, 5 in each group.

CVA6 = assay: Anti-CVA6 effect in Vero cells, qRT-PCR; assay type: cell-based, Coxsackievirus A6; details: for Virus inhibition rate (%): CVA6 MOI 0.01, Vero cells, 24 h, qRT-PCR
Protocol: • (1) Vero cells were plated in a 24-well cell plate. • (2) After the cells reached 70%-80% confluence, the MEM medium containing 10% serum was replaced with a MEM medium containing 2% serum and CVA6 virus, 0.5 ml per well. MOI of the virus was 0.01. The wells without CVA6 virus was set as control group. • (3) After 1 h, […], respectively. • (4) Samples were collected 24 hours after virus infection, and RNA was extracted with total RNA extraction kit as follows. • (5) The supernatant in the wells was discarded, then 350 μl of TRK Lysis Buffer was added to each well and the plate was shaken on the shaker for 5 minutes. • (6) 350 μl of 70% ethanol (DEPC-treated) was added to the well and the plate was shaken on the shaker for 5 minutes. • (7) The mixture in the well was transferred to a RNA extraction column and centrifuged at 12000 g for 1 min. • (8) The solution collected in the recovery tube was added back to the column and centrifuged at 12000 g for 1 min. • (9) RNA washing buffer 1 was added to the column and centrifuged at 12,000 g for 30 s. • (10) RNA washing buffer 2 was added to the column and centrifuged at 12,000 g for 1 min. • (11) Step (10) was repeated once. • (12) The column was centrifuged at 12,000 g for 2 min to completely remove residual RNA washing buffer. • (13) 50 μl DEPC-treated H2O was added to the column and centrifuge at 12,000 g for 2 min. • (14) 2 μl RNA sample was used according to one step qRT-PCR kit for fluorescence quantification experiment.

Row | Compound | IC50 (CVB3) [µM] | EV71 viral load in mouse lung, in words (EV71; 10 mg/kg i.p. every 12 h for 5 days vs PBS) | Number of virus copy in lung tissue (Copies/g) (EV71; 2-day-old ICR mice, EV71 i.p., 10 mg/kg i.p. every 12 h for 5 days, individual animals, 10 mg/kg) | Virus inhibition rate (%) (CVA6; 0.625 μM) | Virus inhibition rate (%) (CVA6; 2.15 μM) | Virus inhibition rate (%) (CVA6; 2.5 μM) | Virus inhibition rate (%) (CVA6; 5 μM) | Virus inhibition rate (%) (CVA6; 10 μM) | effect on CVA6 replication, in words (CVA6; Vero cells) | IC50 (CVA6; Vero cells, read-out: IC50 against CVA6) [µM]
1 | YGRKKRRQRRRGSGEAVREYCK [BP8] | 4.12 | – | – | – | – | – | – | – | – | –
2 | CC(=O)N[C@H](CCCNC(=N)N)C(=O)N[C@H](CS)C(=O)N[C@H](Cc1ccc(O)cc1)C(=O)N[C@H](CCC(N)=O)C(=O)N[C@H](CCCNC(=N)N)C(=O)N[C@@H](C(=O)N[C@H](CCC(=O)O)C(=O)N[C@H](CCC(=O)O)C(=O)N1CCC[C@@H]1C(=O)N1CCC[C@@H]1C(=O)N[C@H](CCCNC(=N)N)C(=O)N[C@H](CCCNC(=N)N)C(=O)N[C@H](CCCNC(=N)N)C(=O)N[C@H](CCC(N)=O)C(=O)N[C@H](CCCNC(=N)N)C(=O)N[C@H](CCCNC(=N)N)C(=O)N[C@H](CCCCN)C(=O)N[C@H](CCCCN)C(=O)N[C@H](CCCNC(=N)N)C(=O)NCC(=O)N[C@H](Cc1ccc(O)cc1)C(N)=O)C(C)C [ER-DRI] (Ac-[dR][dC][dY][dQ][dR][dV][dE][dE][dP][dP][dR][dR][dR][dQ][dR][dR][dK][dK][dR]G[dY]-NH2) | – | can significantly reduce the viral load of EV71 in the mouse lung | 294534 Copies/g and 484192 Copies/g and 2956937 Copies/g and 549759 Copies/g and 116302 Copies/g | 71.8% and 74.9% and 67.5% | 72.6% and 85.3% and 90.4% | 91.3% and 93.4% and 91.7% | 94.3% and 94.9% and 96.4% | 91.4% and 97.8% and 97.9% | able to inhibit the replication of CVA6 | < 0.625
